Where “and” joins values, the source holds several entries; their conditions need not be identical. Equal entries are not always repeated. Where two headings read alike, the source gives them in different places.
Experiments:
[1] = cited from earlier work
PKC = PKC kinase activity assay kit (Assay Designs); type: biochemical; details: for percentage PKC inhibition: PKC 10 ng/well
Method: A PKC kinase activity assay kit (Assay Designs, Ann Arbor, Mich.) was used to test endoxifen PKC inhibitory activity 0.025, 0.05, 0.1, or 0.2 mM endoxifen was used in a reaction mix containing PKC 10 ng/well.

male Balb/c mice = experiment: Toxicity testing, intravenous single and repeat dose in mice; type: in vivo
Method: Endoxifen was formulated according to Example 6 and was tested for toxicity in male Balb/c mice. A single test dose at 100 mg/kg or 50 mg/kg was intravenously administered to mice. […] The mice also survived in the control group with a vehicle control that lacked endoxifen. Repeat dose toxicity study was conducted with a dose of 25 mg/kg administered consecutively for 3 days with accumulated dose of 75 mg/kg. […] The results are reported in the table below as the number of mice surviving per total.

[2] = Comparative pharmacokinetic study in rats; type: in vivo; details: oral 10 mg/kg endoxifen versus 10 mg/kg tamoxifen
patients = patients on raloxifene for osteoporosis; cited from earlier work
Parkinsonian monkeys = details: co-administered with levodopa to Parkinsonian monkeys; cited from earlier work

## 4-hydroxy tamoxifen [4-OH-tamoxifen, reference compound]
[1]; human, in vivo
  concentration in the human plasma: 1 ng/mL

## CC/C(=C(\c1ccc(O)cc1)c1ccc(OCCNC)cc1)c1ccccc1 [Endoxifen, 4-hydroxy N-desmethyl tamoxifen]
[1]; patients treated with tamoxifen
  concentration in the human plasma: 12.4 ng/mL
PKC; 0.2 mM
  percentage PKC inhibition: 80%
PKC; […]
  percentage PKC inhibition: 12%
PKC; endoxifen versus tamoxifen
  potency as PKC inhibitor relative to tamoxifen: at least four fold more potent
Male Balb/c mice; repeat dose 25 mg/kg consecutively for 3 days, accumulated dose 75 mg/kg
  Survival/Total: 4/4
Male Balb/c mice; single dose 50 mg/kg intravenous
  loss of body weight: no significant loss of body weight
Male Balb/c mice; single dose 50 mg/kg intravenous, formulated according to Example 6, 50 mg/kg
  Survival/Total: all animals survived and 4/4
Male Balb/c mice; single dose 100 mg/kg intravenous, formulated according to Example 6, 100 mg/kg
  Survival/Total: All the mice died and 0/2
[2]
  endoxifen plasma concentration compared to that after same dose of tamoxifen: 10 fold

## O=C(c1ccc(OCCN2CCCCC2)cc1)c1c(-c2ccc(O)cc2)sc2cc(O)ccc12 [raloxifene]
patients
  reduction in risk of mild cognitive impairment: 33%

## CC/C(=C(\c1ccccc1)c1ccc(OCCN(C)C)cc1)c1ccccc1 [tamoxifen, reference compound]
Parkinsonian monkeys
  attenuation of levodopa-induced dyskinesias: 61%
